Source: US12060588B2, “Methods of editing DNA methylation” (Whitehead Institute for Biomedical Research, priority 2016, dated 2024)

How the values were obtained:
[1] = test system: Snrpn promoter (IG-DMR GFP/Pat reporter); test: Ex vivo activation of the silenced IG-DMR-Snrpn-GFP reporter in mouse tail fibroblasts; type: cell-based
Excerpt: FIGS. 7A-7H depict targeted ex vivo and in vivo DNA methylation editing by dCas9-Tet1 to activate a silenced GFP reporter. FIG. 7A provides a schematic diagram illustrating the experimental procedure for the ex vivo activation of a silenced GFP reporter in mouse fibroblast cells. Mouse tail fibroblast cells were derived from a genetically modified mouse line carrying a paternal IG-DMR-Snrpn-GFP allele (IG-DMRGFP/Pat) in the Dlk1-Dio3 locus. The IG-DMR-Snrpn promoter on the paternal allele is hypermethylated so that the GFP reporter is constitutively silenced. The cultured fibroblast cells were infected with lentiviral vectors expressing dCas9-Tet1 and gRNAs to demethylate the Snrpn promoter and activate the GFP reporter. Cells are subject to imaging and FACS analysis. […] Stained in red for Cherry, green for GFP and DAPI for nuclei. Scale bar: 100 um. Note that in order to turn on the Snrpn-GFP methylation reporter, both dCas9-Tet1 and target gRNA lentiviral vectors have to be transduced into the same cells. […] Brains were sliced and analyzed by immunohistochemical approaches. […] FIGS. 7G-7H provide quantification of the percentage of IG-DMR^GFP/Pat cells with GFP activation in Cherry (gRNAs) positive cells in the in vivo lentiviral delivery experiment in the brain (FIG. 7G) and in the skin epidemis (FIG. 7H). […]

[2] = test system: Snrpn promoter (IG-DMR GFP/Pat reporter), neurons; test: In vivo activation of the IG-DMR GFP/Pat reporter in mouse brain (stereotaxic lentiviral delivery)
Excerpt: FIGS. 7A-7H depict targeted ex vivo and in vivo DNA methylation editing by dCas9-Tet1 to activate a silenced GFP reporter. FIG. 7A provides a schematic diagram illustrating the experimental procedure for the ex vivo activation of a silenced GFP reporter in mouse fibroblast cells. Mouse tail fibroblast cells were derived from a genetically modified mouse line carrying a paternal IG-DMR-Snrpn-GFP allele (IG-DMRGFP/Pat) in the Dlk1-Dio3 locus. The IG-DMR-Snrpn promoter on the paternal allele is hypermethylated so that the GFP reporter is constitutively silenced. […] Brains were sliced and analyzed by immunohistochemical approaches. […] FIGS. 7G-7H provide quantification of the percentage of IG-DMR^GFP/Pat cells with GFP activation in Cherry (gRNAs) positive cells in the in vivo lentiviral delivery experiment in the brain (FIG. 7G) and in the skin epidemis (FIG. 7H). […]
To investigate whether the DNA methylation status can be modified in vivo, we infected 3 epidermal sites on the ventral side of an IG-DMR^GFP/Pat transgenic mouse with the dCas9-Tet1 and Snrpn gRNAs (FIG. 14D). […] In addition we infected the brain of an IG-DMR^GFP/Pat transgenic mouse with lentiviral vectors using a stereotaxic setup and analyzed the effect on targeted DNA methylation in brain slices by confocal microscopy. […]

Substance	GFP reporter activation in Cherry (gRNA) positive fibroblasts ([1]; with Snrpn target gRNAs, lentiviral transduction)	GFP reporter activation efficiency in Cherry positive cells (neurons) of the brain in vivo ([2]; with Snrpn gRNAs, stereotaxic lentiviral injection, 3 days)	GFP reporter activation in Cherry (gRNA) positive fibroblasts ([1]; with a sc gRNA)	GFP reporter activation in Cherry positive cells of the brain in vivo ([2]; with a scrambled gRNA)
dC-dT: dCas9 fused to an inactive mutant form of Tet1 (H1672Y, D1674A), SEQ ID NO: 160	cannot turn on GFP reporter expression	did not activate GFP reporter expression	–	–
dCas9-Tet1: catalytically inactive Cas9 (dCas9) fused through NLS to the Tet1 catalytic domain, SEQ ID NO: 159; lentivirally expressed with gRNAs	–	–	cannot turn on GFP reporter expression	did not activate GFP reporter expression
